Data reported in patent publication US20240230626A9, “METHOD FOR SCREENING POTENTIAL THERAPEUTIC AGENTS” (UNIVERSITEIT ANTWERPEN, priority 2021, published 2024).

System: hPSC21/MiaPaca2 co-culture
Experiment: Co-culture of RFP-labelled MiaPaca2 cancer cells and GFP-labelled hPSC21 stellate cells, kinetic fluorescence imaging
Format: cell-based, Human
From the text: Pancreatic ductal adenocarcinoma (PDAC) MiaPaca2 cancer cells were transduced with Nuclight Red lentiviral reagent to stably express RFP. Human pancreatic stellate cells 21 (hPSC21) were transduced with the Nuclight Green lentiviral reagent to stably express GFP. Both cell lines were cultures in a 2:1 hPSC21/MiaPaca2 ratio in a 384-well ultra-low attachment plate and treated with the Rho-kinase inhibitor Y-27632, an inducer of a cancer associated fibroblast (CAF) like phenotype of stellate cells (Li et al., Aging, 2020). The cells were incubated at 37° C./5CO2 in the Tecan Spark Cyto multimode plate reader with imaging capabilities and BF, red and green fluorescent images were taken every hour for 48 hours.

For C[C@@H](N)[C@H]1CC[C@H](C(=O)Nc2ccncc2)CC1 [Y-27632], the “morphology versus control sample” value (2:1 hPSC21/MiaPaca2, 384-well ultra-low attachment plate, imaged every hour for 48 hours (FIG. 7D)) was “activation and migration of hPSC21 towards the PDAC cancer cells”, the “velocity of the objects inside the well” value (2:1 hPSC21/MiaPaca2 co-culture, imaged every hour for 48 hours (FIG. 7B)) was “increased” and the “number of merges of the objects inside the well” value (2:1 hPSC21/MiaPaca2 co-culture, imaged every hour for 48 hours (FIG. 7C)) was “increased”.
